Consider nine molecules from US11214538B2, “Farnesoid X receptor agonists and uses thereof” (Metacrine, Inc., priority 2015, dated 2022).

Test [1] addresses T1, hFXR (Homo sapiens, UniProt Q96RI1).
T1 construct: expressed in transfected cells; host or cells: CV-1 cells
T1 sequence (Q96RI1 1-486): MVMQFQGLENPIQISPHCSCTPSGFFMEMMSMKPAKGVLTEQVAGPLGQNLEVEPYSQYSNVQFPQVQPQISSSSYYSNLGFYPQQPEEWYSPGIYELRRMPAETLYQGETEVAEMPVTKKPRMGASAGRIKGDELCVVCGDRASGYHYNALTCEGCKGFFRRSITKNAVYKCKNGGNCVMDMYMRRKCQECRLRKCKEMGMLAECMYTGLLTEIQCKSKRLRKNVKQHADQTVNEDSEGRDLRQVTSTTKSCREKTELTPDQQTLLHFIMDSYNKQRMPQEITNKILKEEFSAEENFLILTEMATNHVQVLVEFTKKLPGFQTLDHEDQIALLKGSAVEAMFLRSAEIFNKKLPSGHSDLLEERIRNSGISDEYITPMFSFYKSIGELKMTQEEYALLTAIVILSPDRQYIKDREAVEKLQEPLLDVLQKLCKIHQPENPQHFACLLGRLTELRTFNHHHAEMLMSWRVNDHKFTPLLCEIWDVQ
T1 sequence (P19793 1-462 partner): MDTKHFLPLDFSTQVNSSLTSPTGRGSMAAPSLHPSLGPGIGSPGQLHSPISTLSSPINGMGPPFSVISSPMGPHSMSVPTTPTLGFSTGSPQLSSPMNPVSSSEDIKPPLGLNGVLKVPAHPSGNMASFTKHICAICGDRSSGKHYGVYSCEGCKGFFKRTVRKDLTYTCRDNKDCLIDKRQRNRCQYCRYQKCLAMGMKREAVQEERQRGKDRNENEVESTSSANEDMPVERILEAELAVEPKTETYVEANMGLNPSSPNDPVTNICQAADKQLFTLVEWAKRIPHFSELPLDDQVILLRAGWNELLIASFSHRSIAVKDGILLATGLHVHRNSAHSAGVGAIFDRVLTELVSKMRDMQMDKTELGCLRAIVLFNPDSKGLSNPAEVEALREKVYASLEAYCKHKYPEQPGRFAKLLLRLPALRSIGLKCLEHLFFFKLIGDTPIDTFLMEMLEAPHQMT
The test can be described thus: In Vitro FXR Assay (PGL3), luciferase reporter in transfected CV-1 cells. The format is cell-based. The conditions noted are these: CV-1 cells transfected with hFXR, hRXR, PGL3-ECRE*6-luc; 18 hrs incubation; luminescence. On the procedure:
Example B-1: In Vitro FXR Assay (PGL3)
CV-1 cells were seeded at a density of 2,000,000 cells in a T175 flask with DMEM+10% charcoal double-stripped FBS and incubated at 37° C. in a 5% CO2 for 18 h (O/N).
After 18 h of incubation, the medium in the T175 flask was changed with fresh DMEM+10% charcoal super-stripped serum.
To prepare the transfection reaction mixture, the transfection reagent (X-tremeGENE HP from Roche, Cat #06 366 236 001) was added in to a 1.5 mL microcentrifuge tube labelled “A” at a ratio of 1:3 (DNA in g: transfection reagent in μL). OptiMEM medium (Life Technologies, Cat #31985-062) was added accordingly to provide a total volume of 1 mL. The transfection reaction mixture was then briefly vortexed and incubated at room temperature for 5 minutes.
In a separate 1.5 mL microcentrifuge tube labelled “B”, 100 μL OptiMEM and plasmids XPD90Gal pCMXhFXRfl, pCMXhRXRfl+PGL3-ECRE*6-luc+CMX-YFP in the ratio 2 g: 2 g:18 g:3 g were added. This microcentrifuge tube “B” was then briefly vortexed and incubated at room temperature for 5 minutes.
The total volume in tube labelled “A” was then transferred in to tube labelled “B.” The mixture was then briefly vortexed and the transfection:DNA complex was then incubated for about 15-20 minutes at room temperature.
Following incubation, the transfection reagent/DNA mixture complex was then added to cells in the T175 flask and the cells were incubated at […] (O/N) at 37° C. in 5% CO2.
In a 96 well plate, a half logarithmic serial dilution was prepared. OptiMEM was used as the diluent. Using any of one of the compounds described herein, a compound stock solution of 10 mM was prepared. An initial 1:100 dilution was made into the first well for a final concentration of 100 μM. The final concentrations in the 96-well plate was prepared by using a multichannel pipette to transfer 5 μL of the diluted compound to 384-well plate in quadruplicate.
Cells in T175 flask were trypsinized and cells were resuspending in 40 mL phenol red free DMEM+10% charcoal super-stripped FBS. Typically, one T175 flask was sufficient to seed two 384 well plates. CV-1 cells were seeded at 45 μL cell suspension/well using a multichannel pipet or a 384 multidrop dispenser. The cells were then incubated for 18 hrs, overnight.
After removing the plates from the incubator, the medium was flicked out of plate and 384 well plate was turned upside down onto paper towel. The remaining medium was gently tapped out. 15 μL lysis buffer was then added to each well using a multichannel pipet or a 384 well multi-drop dispenser. After incubation for 10 minutes at room temperature on shaker, 30 μL Luciferase buffer was added to each well. Luminescence counts were taken immediately using the Perkin Elmer Envision.
The ability of the compounds disclosed herein to […] FXR activity was quantified and the respective EC50 value was determined. Fex=fexaramine.

Test [2] deals with T1, hFXR. Nature of the test: In Vitro FXR Assay (TK), luciferase reporter in transfected CV-1 cells. It counts as cell-based. Conditions: CV-1 cells transfected with hFXR, hRXR, TK-ECRE-luc; 18 hrs incubation; luminescence; compounds with a maximum efficacy of <25% of the Fexaramine control classified as '+'. On the procedure: Example B-2: In Vitro FXR Assay (TK)
CV-1 cells were seeded at a density of 2,000,000 cells in a T175 flask with DMEM+10% charcoal double-stripped FBS and incubated at 37° C. in 5% CO2 for 18 h (O/N).
After 18 h of incubation, the medium in the T175 flask was changed with fresh DMEM+10% charcoal super-stripped serum. In a polypropylene tube, 2500 μL OptiMEM (Life Technologies, Cat #31985-062) was combined with expression plasmids for hFXR, hRXR, TK-ECRE-luc and pCMX-YFP. The tube was then briefly vortexed and incubated at room temperature for 5 minutes. Transfection reagent (X-tremeGENE HP from Roche, Cat #06 366 236 001) was added to the OptiMEM/plasmid mixture vortexed and incubated at room temperature for 20 minutes. Following incubation, the transfection reagent/DNA mixture complex was added to cells in the T175 flask and the cells were incubated at 37° C. in 5% CO2 for 18 h (O/N).
Compounds were serially diluted in DMSO and added to transfected CV-1 cells. The cells were then incubated for 18 hrs. The next day cells were lysed and examined for luminescence.

Structures are written as SMILES.

Turning to `COCCNc1cccc(N(Cc2ccc(-c3ccc(N(C)C)cc3)cc2)C(=O)C2CCCCC2)c1` [Compound 4, N-((4′-(dimethylamino)-[1,1′-biphenyl]-4-yl)methyl)-N-(3-((2-methoxyethyl)amino)phenyl)cyclohexanecarboxamide], in test [1], the “Cmpd/Fex (ratio of the EC50 for the test compound relative to the EC50 of the Fexaramine control)” value is reported as “+++ (‘+++’ means Cmpd/Fex <10)”. The molecule also gave an EC50 in test [2] of 3 to 10 µM.
With `CN(C)c1ccc(-c2ccc(CN(C(=O)C3CCCCC3)c3cccc(/C=C/c4ncco4)c3)cc2)cc1` [Compound 14, (E)-N-((4′-(Dimethylamino)-[1,1′-biphenyl]-4-yl)methyl)-N-(3-(2-(oxazol-2-yl)vinyl)phenyl)cyclohexanecarboxamide], the “Cmpd/Fex (ratio of the EC50 for the test compound relative to the EC50 of the Fexaramine control)” value in test [1] was “+++ (‘+++’ means Cmpd/Fex <10)”. The molecule also had an EC50 in test [2] of at most 3 µM.
For `COC(=O)CNc1cccc(N(Cc2ccc(-c3ccc(N(C)C)cc3)cc2)C(=O)C2CCCCC2)c1` [Compound 9, Methyl 2-((3-(N-((4′-(dimethylamino)-[1,1′-biphenyl]-4-yl)methyl)cyclohexanecarboxamido)phenyl)amino)acetate], in that order: “++ (‘++’ means Cmpd/Fex >10 & <100)” and at most 3 µM.
The matching figures for `C/C=C/c1cccc(N(Cc2ccc(-c3ccc(N(C)C)cc3)cc2)C(=O)C2CCCCC2)c1` [Compound 16, (E)-N-((4′-(Dimethylamino)-[1,1′-biphenyl]-4-yl)methyl)-N-(3-(prop-1-en-1-yl)phenyl)cyclohexanecarboxamide]: “++ (‘++’ means Cmpd/Fex >10 & <100)” and 3 to 10 µM.
As for `O=C(C1CCCCC1)N(Cc1ccc(-c2ccc(F)cc2)cc1)c1cccc(-c2ccccc2)c1` [Compound 15, N-([1,1′-Biphenyl]-3-yl)-N-((4′-fluoro-[1,1′-biphenyl]-4-yl)methyl)cyclohexanecarboxamide], the “Cmpd/Fex (ratio of the EC50 for the test compound relative to the EC50 of the Fexaramine control)” value in test [1] is “+ (‘+’ means Cmpd/Fex >100)”. Besides, the EC50 in test [2] is at most 3 µM.
The matching figures for `CN(C)C(=O)/C=C/c1cccc(N(Cc2ccc(-c3ccc(N(C)C)cc3)cc2)C(=O)C2CCCCC2)c1` [Compound 13, (E)-N-(3-(3-(Dimethylamino)-3-oxoprop-1-en-1-yl)phenyl)-N-((4′-(dimethylamino)-[1,1′-biphenyl]-4-yl)methyl)cyclohexanecarboxamide]: “+ (‘+’ means Cmpd/Fex >100)” and at most 3 µM.
For `COc1cncc(-c2cccc(N(Cc3ccc(-c4ccc(N(C)C)cc4)cc3)C(=O)C3CCCCC3)c2)c1` [Compound 1, N-((4′-(Dimethylamino)-[1,1′-biphenyl]-4-yl)methyl)-N-(3-(5-methoxypyridin-3-yl)phenyl)cyclohexanecarboxamide], in that order: “+++ (‘+++’ means Cmpd/Fex <10)” and at most 3 µM.
For `CCC/C=C/c1cccc(N(Cc2ccc(-c3ccc(N(C)C)cc3)cc2)C(=O)C2CCCCC2)c1` [Compound 7, (E)-N-((4′-(dimethylamino)-[1,1′-biphenyl]-4-yl)methyl)-N-(3-(pent-1-en-1-yl)phenyl)cyclohexanecarboxamide], in that order: “++ (‘++’ means Cmpd/Fex >10 & <100)” and 3 to 10 µM.
As to `CN(C)c1ccc(-c2ccc(CN(C(=O)C3CCCCC3)c3cccc(-c4ccccc4)c3)cc2)cc1` [Compound 18, N-([1,1′-Biphenyl]-3-yl)-N-((4′-(dimethylamino)-[1,1′-biphenyl]-4-yl)methyl)cyclohexanecarboxamide], the “Cmpd/Fex (ratio of the EC50 for the test compound relative to the EC50 of the Fexaramine control)” value in test [1] is “+ (‘+’ means Cmpd/Fex >100)”. This molecule had a concentration for a half-maximal effect (EC50) in test [2] of 3 to 10 µM.
